≈ marks a conversion by molar mass, not a printed value.
Tested on: CCRF-CEM
Test: Cytotoxicity against human CCRF-CEM cells
Type: functional, cell-based

Q: How did the IC50 turn out when `CC[C@]1(O)C[C@@H]2CN(CCc3c([nH]c4ccccc34)[C@@](C(=O)OC)(c3cc4c(cc3OC)N(C)[C@H]3[C@@](O)(C(=O)OC)[C@H](OC(C)=O)[C@]5(CC)C=CCN6CC[C@]43[C@@H]65)C2)C1` [VINBLASTINE] was run?
A: 0.03 µg/mL (≈ 0.037 µM)

Q: For `CC[C@H](O)C[C@@H]1CN(C=O)CCc2c([nH]c3ccccc23)[C@@](C(=O)OC)(c2cc3c(cc2OC)N(C=O)[C@H]2[C@@](O)(C(=O)OC)[C@H](OC(C)=O)[C@]4(CC)C=CCN5CC[C@]32[C@@H]54)C1`, which IC50 is on record?
A: 7.1 µg/mL (≈ 8.44 µM)

Q: `CC[C@]1(O)C[C@H]2CN(CCc3c([nH]c4ccccc34)[C@@](C(=O)OC)(c3cc4c(cc3OC)N(C=O)[C@H]3[C@@](O)(C(=O)OC)[C@H](OC(C)=O)[C@]5(CC)C=CCN6CC[C@]43[C@@H]65)C2)C1` [VINCRISTINE] was tested. Which IC50 did it give?
A: 0.06 µg/mL (≈ 0.0727 µM)

Q: Which IC50 does the source give for `CCC(=O)C[C@@H]1CN(C=O)CCc2c([nH]c3ccccc23)[C@@](C(=O)OC)(c2cc3c(cc2OC)N(C)[C@H]2[C@](O)(C(=O)OC)[C@H](OC(C)=O)[C@]4(CC)C=CCN5CC[C@]32[C@@H]54)C1` [CATHARININE] here?
A: 7.7 µg/mL (≈ 9.33 µM)

Source: ChEMBL document CHEMBL1158863, “Oxidations of vincristine catalyzed by peroxidase and ceruloplasmin” (J Nat Prod, 1997)
